Measured values: patent US11673889B2, “Substituted imidazo[4,5-c][1,8]naphthyridines as phosphodiesterase inhibitors” (Nanjing Zhengxiang Pharmaceuticals Co., Ltd., priority 2019, dated 2023)
pIC50: −log10 of the molar value.

Legend:
human soluble ENPP1 [1] = molecular target: T1, human soluble ENPP1 (Homo sapiens, UniProt P22413); test: ENPP1 activity assay using p-Nitrophenyl-5′-TMP as a substrate; type: biochemical
T1 construct: 20 ng of human soluble ENPP1
T1 sequence (P22413 103-925 limits assumed): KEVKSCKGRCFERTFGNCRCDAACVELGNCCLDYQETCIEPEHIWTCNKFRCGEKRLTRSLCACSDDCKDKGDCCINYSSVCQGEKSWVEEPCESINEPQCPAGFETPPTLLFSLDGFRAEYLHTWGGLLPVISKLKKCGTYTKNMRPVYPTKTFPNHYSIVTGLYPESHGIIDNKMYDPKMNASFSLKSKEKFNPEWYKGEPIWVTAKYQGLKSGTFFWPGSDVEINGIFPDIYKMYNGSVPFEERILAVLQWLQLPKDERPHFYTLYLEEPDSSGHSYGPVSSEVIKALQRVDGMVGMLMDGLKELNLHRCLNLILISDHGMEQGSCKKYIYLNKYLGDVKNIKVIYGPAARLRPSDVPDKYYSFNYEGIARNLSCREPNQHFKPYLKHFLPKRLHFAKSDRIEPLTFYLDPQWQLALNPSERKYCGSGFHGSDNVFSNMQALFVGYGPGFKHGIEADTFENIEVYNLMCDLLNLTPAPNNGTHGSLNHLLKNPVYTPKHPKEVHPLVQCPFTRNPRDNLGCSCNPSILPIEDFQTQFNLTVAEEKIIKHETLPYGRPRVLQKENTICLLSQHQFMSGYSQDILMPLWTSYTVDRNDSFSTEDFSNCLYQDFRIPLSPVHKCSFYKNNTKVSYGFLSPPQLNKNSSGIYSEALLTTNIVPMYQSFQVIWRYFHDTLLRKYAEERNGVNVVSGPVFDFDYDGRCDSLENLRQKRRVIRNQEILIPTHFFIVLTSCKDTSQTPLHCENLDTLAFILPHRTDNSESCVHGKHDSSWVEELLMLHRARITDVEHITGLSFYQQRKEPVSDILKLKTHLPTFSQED
Protocol: ENPP1 is a transmembrane glycoprotein that hydrolyzes nucleotides and nucleotide derivatives with the formation of nucleotide-5′-monophosphates. ENPP1 hydrolyzes artificial phosphoric acid ester thymidine 5′monophosphate p-nitrophenyl ester (TMP-pNP) to nucleotide-5′-monophosphate and p-nitrophenol, which is a chromogenic product.
Load into a well with 20 ng of human soluble ENPP1 in 50 μL and incubate at room temperature with 25 μL inhibitor solution (4× Final Concentration) for 30 mins. Then, add 25 μL 2 mM TMP solution (2× Final Concentration) into the well, Incubate at RT for 1 hour.
(§1) The percent inhibition at each compound is calculated as follows: % inhibition=(ODMAX−ODCOMPOUND)/(ODMAX−ODMIN)*100. (MAX: absence of ENPP1 inhibitors control, MIN: blank control.)
The IC50 values for percent inhibition versus compound concentration were determined by fitting the inhibition curves using a four-parameter variable slope model in GraphPad Prism® 8.

human soluble ENPP1 [2] = molecular target: T1, human soluble ENPP1; test: ENPP1 activity assay using p-Nitrophenyl-5′-AMP as a substrate; type: biochemical
Protocol: AMP-pNP can be used as substrate of ENPP-1. Its hydrolysis products were nucleotide-5′-monophosphate and p-nitrophcnol, which is also a chromogenic product. The amount of p-nitrophenol product formed is measured using its absorbance at 405 nm, which is directly proportional to enzyme activity.
Load into a well with […] of human soluble ENPP1 in 50 μL and incubate at room temperature with 25 μL inhibitor solution (4× Final Concentration) for 30 mins prior adding 25 μL 3 mM AMP solution (2× Final Concentration) into the well, Incubate at RT for 1 hour. The amounts of released p-nitrophenolate were measured by reading OD value at 405 nm.
as §1
(§2) The IC50 values for percent inhibition versus compound concentration are determined by fitting the inhibition curves using a four-parameter variable slope model in GraphPad Prism® 8.

ENPP-1, MDA-MB-231 cells = molecular target: T2, ENPP-1, MDA-MB-231 cells (Homo sapiens, UniProt P22413); test: cell-based; details: for inhibition at 20 µM: MDA-MB-231, read-out: % Inhibition (at 20 μM)
T2 sequence (P22413 1-925): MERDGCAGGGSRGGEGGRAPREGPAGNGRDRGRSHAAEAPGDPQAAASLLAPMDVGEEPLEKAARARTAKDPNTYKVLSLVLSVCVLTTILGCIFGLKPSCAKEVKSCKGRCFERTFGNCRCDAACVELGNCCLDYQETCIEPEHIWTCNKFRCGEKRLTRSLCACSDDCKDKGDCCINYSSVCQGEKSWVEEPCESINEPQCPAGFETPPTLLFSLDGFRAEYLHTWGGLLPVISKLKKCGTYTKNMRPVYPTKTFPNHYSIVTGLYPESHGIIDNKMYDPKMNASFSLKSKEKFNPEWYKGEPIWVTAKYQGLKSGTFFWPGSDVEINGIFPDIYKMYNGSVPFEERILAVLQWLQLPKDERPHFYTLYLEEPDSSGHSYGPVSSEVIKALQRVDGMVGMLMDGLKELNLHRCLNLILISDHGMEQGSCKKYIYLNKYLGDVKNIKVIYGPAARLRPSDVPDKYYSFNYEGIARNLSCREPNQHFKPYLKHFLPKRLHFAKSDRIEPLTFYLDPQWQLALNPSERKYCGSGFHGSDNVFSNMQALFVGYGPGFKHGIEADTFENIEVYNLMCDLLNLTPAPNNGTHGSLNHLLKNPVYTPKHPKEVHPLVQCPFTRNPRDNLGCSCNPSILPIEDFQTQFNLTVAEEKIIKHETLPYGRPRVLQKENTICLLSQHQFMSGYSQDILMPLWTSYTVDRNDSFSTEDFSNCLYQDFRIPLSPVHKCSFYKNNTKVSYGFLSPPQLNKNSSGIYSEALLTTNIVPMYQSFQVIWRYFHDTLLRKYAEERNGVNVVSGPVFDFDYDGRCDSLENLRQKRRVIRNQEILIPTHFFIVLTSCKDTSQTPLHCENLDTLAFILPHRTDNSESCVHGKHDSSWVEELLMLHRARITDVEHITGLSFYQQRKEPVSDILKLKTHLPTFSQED
Protocol: ENPP-1 were mainly expressed on the surface of cell membrane where it hydrolytes 2′3′-cGAMP to generate 5′-GMP and 5′-AMP. ENPP-1 also has the ability to hydrolyzes artificial phosphoric acid ester TMP-pNP to nucleotide-5′-monophosphate and p-nitrophcnol there, which is a chromogenic product.
8 point of different concentrations of each inhibitor were prepared with the final assay concentrations starting at 20 μM. 3× series dilution by DMEM medium without FBS was applied. Prior to adding inhibitors, 75000 cells per well were incubated at 37° C., 5% CO2 in DMEM for 24 hours. After removing the supernatant medium, 50 μL inhibitor solution was added into each well with cultured cells and incubate at 37° C., 5% CO2 for 60 minutes.
as §2

| pIC50 (human soluble ENPP1 [1]) | pIC50 (human soluble ENPP1 [2]) | Compound | other results |
| --- | --- | --- | --- |
| 8.68 | 8.04 | COCc1nc2cnc3nc(OC)ccc3c2n1Cc1ccc(S(N)(=O)=O)c(F)c1 [Compound 79, 2-fluoro-4-((7-methoxy-2-(methoxymethyl)-1H-imidazo[4,5-c][1,8]naphthyridin-1-yl)methyl)benzenesulfonamide] | pIC50 (ENPP-1, MDA-MB-231 cells): 5.72; inhibition at 20 µM (ENPP-1, MDA-MB-231 cells): 74% |
| – | – | COc1ccc2c(ncc3[nH]c(=O)n(Cc4ccc(CS(N)(=O)=O)cc4)c32)n1 [Compound 128, (4-((7-Methoxy-2-oxo-2,3-dihydro-1H-imidazo[4,5-c][1,8]naphthyridin-1-yl)methyl)phenyl)-methanesulfonamide] | inhibition at 20 µM (ENPP-1, MDA-MB-231 cells): 82% |
| 8.11 | – | COc1cc2ncc3ncn(CC4CCN(S(N)(=O)=O)CC4)c3c2cc1OC [Compound 32, 4-((7,8-dimethoxy-1H-imidazo[4,5-c]quinolin-1-yl)methyl)piperidine-1-sulfonamide] | – |
| 8.06 | – | COc1ccc2c(ncc3[nH]c(=O)n(Cc4cc(F)c(S(N)(=O)=O)c(F)c4)c32)n1 [Compound 100, 2,6-difluoro-4-((7-methoxy-2-oxo-2,3-dihydro-1H-imidazo[4,5-c][1,8]naphthyridin-1-yl)methyl)benzenesulfonamide] | – |
| 9.52 | – | COc1ccc2c(c1)ncc1[nH]c(=O)n([C@H](C)c3ccc(S(N)(=O)=O)cc3)c12 [Compound 8, (R)-4-(1-(7-methoxy-2-oxo-2,3-dihydro-1H-imidazo[4,5-c]quinolin-1-yl)ethyl)benzenesulfonamide] | – |
| 7.42 | 6.85 | COc1ccc2c(ncc3[nH]c(=O)n(Cc4c(F)cc(NS(N)(=O)=O)cc4F)c32)n1 [Compound 138] | – |
| – | – | CCCC(=O)NS(=O)(=O)c1cc(F)c(Cn2c(=O)[nH]c3cnc4nc(OC)ccc4c32)c(F)c1 [Compound 106, sodium butyryl((3,5-difluoro-4-((7-methoxy-2-oxo-2,3-dihydro-1H-imidazo[4,5-c][1,8]naphthyridin-1-yl)methyl)phenyl)sulfonyl)amide] | pIC50 (ENPP-1, MDA-MB-231 cells): < 5.17; inhibition at 20 µM (ENPP-1, MDA-MB-231 cells): 57% |
| 6.05 | – | COc1cc2ncc3nnc(-c4ccc(CNS(N)(=O)=O)cc4)n3c2cc1OC [Compound 51, 4-(7,8-dimethoxy-[1,2,4]triazolo[4,3-a]quinoxalin-1-yl)benzyl sulfamide] | – |
| – | 9.80 | COc1ccc2c(ncc3nc(C)n(Cc4c(F)cc(S(N)(=O)=O)cc4F)c32)n1 [Compound 130, 3,5-difluoro-4-((7-methoxy-2-methyl-1H-imidazo[4,5-c][1,8]naphthyridin-1-yl)methyl)benzenesulfonamide] | pIC50 (human soluble ENPP1 [1]; substrate TMP-pNP, 20 ng human soluble ENPP1, Tris buffer pH 9.5, read-out: TMP-pNP (IC50)): 9.80 |
| 6.78 | – | COc1cc2ncc3ncn(Cc4cccc(S(N)(=O)=O)c4)c3c2cc1OC [Compound 37, 3-((7,8-dimethoxy-1H-imidazo[4,5-c]quinolin-1-yl)methyl)benzenesulfonamide] | – |
| 8.37 | 7.48 | COc1cc2ncc3nnn(Cc4ccc(S(N)(=O)=O)cc4)c3c2cc1OC [Compound 13, 4-((7,8-dimethoxy-1H-[1,2,3]triazolo[4,5-c]quinolin-1-yl)methyl)benzenesulfonamide] | – |
| 7.21 | 6.70 | COc1nc2nc(C)c3nc(C)n(Cc4ncc(S(N)(=O)=O)cn4)c3c2cc1Cl [Compound 91b, 2-((6-chloro-7-methoxy-2,4-dimethyl-1H-imidazo[4,5-c][1,8]naphthyridin-1-yl)methyl)pyrimidine-5-sulfonamide] | – |
| 8.00 | – | COc1cc2ncc3c(c2cc1OC)n(Cc1ccc(S(N)(=O)=O)cc1)c(=O)n3C [Compound 2, 4-((7,8-dimethoxy-3-methyl-2-oxo-2,3-dihydro-1H-imidazo[4,5-c]quinolin-1-yl)methyl)benzenesulfonamide] | – |
| 7.19 | – | COc1cc2ncc3nnc(Cc4ccc(S(N)(=O)=O)cc4)n3c2cc1OC [Compound 44, 4-((7,8-dimethoxy-2λ^2,10λ^4-[1,2,4]triazolo[4,3-a]quinoxalin-1-yl)methyl)benzenesulfonamide] | – |
| 7.37 | 7.10 | CNS(=O)(=O)c1cc(F)c(Cn2c(=O)[nH]c3cnc4nc(OC)ccc4c32)c(F)c1 [Compound 107, 3,5-difluoro-4-((7-methoxy-2-oxo-2,3-dihydro-1H-imidazo[4,5-c][1,8]naphthyridin-1-yl)methyl)-N-methylbenzenesulfonamide] | – |
| 8.77 | 8.14 | COc1ccc2c(ncc3nc(OC)n(Cc4ccc(S(N)(=O)=O)c(F)c4)c32)n1 [Compound 78, 4-((2,7-dimethoxy-1H-imidazo[4,5-c][1,8]naphthyridin-1-yl)methyl)-2-fluorobenzenesulfonamide] | – |
| 7.55 | – | COc1cc2ncc3ncn(Cc4ccc(S(N)(=O)=O)cc4)c3c2cn1 [Compound 50, 4-((7-methoxy-1H-imidazo[4,5-c][1,6]naphthyridin-1-yl)methyl)benzenesulfonamide] | – |
| 6.71 | – | COc1cc2ncc3ncn([C@@H](C)c4ccc(S(N)(=O)=O)cc4)c3c2cc1OC [Compound 11b, (S)-4-(1-(7,8-dimethoxy-1H-imidazo[4,5-c]quinolin-1-yl)ethyl)benzenesulfonamide] | – |
| 10.00 | 9.72 | COc1ccc2c(ncc3ncn(Cc4c(F)cc(S(N)(=O)=O)cc4F)c32)n1 [Compound 129, 3,5-difluoro-4-((7-methoxy-1H-imidazo[4,5-c][1,8]naphthyridin-1-yl)methyl)benzenesulfonamide] | – |
| – | – | COc1ccc2c(ncc3[nH]c(=O)n(Cc4c(F)cc(C(N)=O)cc4F)c32)n1 [Compound 109, 3,5-difluoro-4-((7-methoxy-2-oxo-2,3-dihydro-1H-imidazo[4,5-c][1,8]naphthyridin-1-yl)methyl)benzamide] | pIC50 (ENPP-1, MDA-MB-231 cells): < 4.70; inhibition at 20 µM (ENPP-1, MDA-MB-231 cells): 11% |
